Assay results: patent publication US20250057751A1, “PEPTIDE HAVING ACTIVITY OF IMPROVING STATE OF SKIN, AND USE THEREOF” (CAREGEN CO., LTD., priority 2021, published 2025)

Key:
HaCaT cells [1] = assay: Inhibitory effect on apoptosis of skin cells induced by ultraviolet rays (survival rate, SRB); format: cell-based, human; conditions: 15m J/cm2 ultraviolet rays, 50 μM or 100 μM peptide, 72 hours, FIG. 6B
Method: (§1) In this example, the aim was to confirm the effect of the peptide according to an example on the inhibition of apoptosis or cell recovery of skin cells induced by ultraviolet rays, by evaluating the change in survival rate of skin cells whose apoptosis was induced by ultraviolet irradiation.
(§2) Specifically, NIH3T3 cells or HaCaT cells were seeded in a 96-well plate at a density of 1×10^4 cells/well and cultured for 24 hours. The cells were then washed once with serum-free DMEM media, the culture medium was replaced with serum-free DMEM media, and 50 μM or 100 μM of the peptide consisting of the amino acid sequence of SEQ ID NO: 1 was dispensed to the culture medium. The culture medium dispensed with the peptide was cultured in a CO2 incubator at 37° C. for 1 hour, transferred to an e-tube, mixed with 100 ul of PBS, and dispensed into a well plate. Afterwards, using a UV irradiator (VILBER LOURMAT, France), 6 J/cm2 ultraviolet rays were irradiated to NIH3T3 cells, and 15m J/cm2 ultraviolet rays were irradiated to HaCaT cells. The PBS in the well plate was then removed, 900 μL of the culture medium in which the peptides were dispensed was added, and the plate was cultured in a CO2 incubator at 37° C. for 72 hours. […] The dried culture was then dissolved in 20 mM Tris buffer solution and the absorbance at 560 nm was measured using a microplate reader (Molecular Devices, USA). […]

NIH3T3 cells [2] = assay: Proliferation promoting effect on skin cells (SRB staining, absorbance at 560 nm); format: cell-based, mouse; conditions: 50 μM or 100 μM peptide, 72 hours, serum-free DMEM, FIG. 1A
Method: (§3) In this example, the aim was to confirm the effect of a peptide according to an example on proliferation of skin cells, by evaluating changes in survival rate of NIH3T3 cells, which are mouse fibroblasts, or HaCaT cells, which are human keratinocytes.
(§4) Specifically, NIH3T3 cells or HaCaT cells were seeded in a 96-well plate at a density of 5×10^3 cells/well and cultured for 24 hours. The cells were then washed once with serum-free DMEM media, and the culture medium was replaced with serum-free DMEM media. Then, 50 μM or 100 μM of the peptide consisting of the amino acid sequence of SEQ ID NO: 1 was dispensed into the medium, and cultured in a CO2 incubator at 37° C. for 72 hours. The culture was then washed twice with PBS and treated with 4% paraformaldehyde (PFA) solution for 15 minutes to fix the cultured cells. The culture was then washed twice with distilled water, treated with SRB solution for 1 hour to stain the cells, washed with 1% acetic acid solution, and dried. The dried culture was then dissolved in 20 mM Tris buffer solution and the absorbance at 560 nm was measured using a microplate reader (Molecular Devices, USA). In this example, the untreated group was used as the control group, and the group to which insulin-like growth factor was added (IGF) was used as the positive control group.

NIH3T3 cells [3] = assay: Antioxidant effect on skin cells induced by ultraviolet rays (reactive oxygen species, flow cytometry); format: cell-based, mouse; conditions: 6 J/cm2 ultraviolet rays, 50 μM or 100 μM peptide, 24 hours, FIG. 7A
Method: (§5) In this example, the aim was to confirm the effect of the peptide according to an embodiment on the antioxidant effect of skin cells induced by ultraviolet rays, by evaluating the level of reactive oxygen species in skin cells increased by ultraviolet irradiation.
as §2, with “6-well” for “96-well”, “5×10^5” for “1×10^4”, “24” for “72”, “After washing” for “The dried culture was then dissolved in 20 mM Tris buffer solution and”, “centrifuged cells with PBS, FL1 fluorescence values were” for “absorbance at 560 nm was”, “through flow cytometry (FACS, BD,” for “using a microplate reader (Molecular Devices,”

elastin = assay: Expression of extracellular matrix constituent factor in NIH3T3 cells (RT-PCR); format: cell-based, mouse; conditions: 50 μM or 100 μM peptide, 24 hours, FIG. 2, FIG. 3C
Method: (§6) In this example, the aim was to confirm the effect of the peptide according to an example on improving endogenous skin aging, including improvement of wrinkles and enhancement of elasticity, etc., by evaluating the expression levels of collagen type 1 (Col1a1), fibronectin, or elastin, which are known components of the dermis.
(§7) Specifically, NIH3T3 cells were seeded in a 6-well plate at a density of 3×10^5 cells/well and cultured for 24 hours. The cells were then washed once with serum-free DMEM media, and the culture medium was replaced with serum-free DMEM media. Thereafter, 50 μM or 100 μM of the peptide consisting of the amino acid sequence of SEQ ID NO: 1 was dispensed into the medium, and cultured in a CO2 incubator at 37° C. for 24 hours. The culture was then washed twice with PBS, and RNA was isolated from the culture using easy blue (iNtRON, Korea). Using an RT kit (Enzynomics, Korea), 1 μg of the isolated RNA was reverse transcribed to synthesize the respective cDNA. Polymerase chain reaction (PCR) was then performed using the cDNAs and primers Col1a1, fibronectin, and elastin. Meanwhile, the untreated group was used as the control group, and the group to which TGF-β1 was added (TGF-β1) was used as the positive control group, the nucleotide sequences of the primers used in this example are shown in Table 2 below.

collagen type 1 (Col1a1) = assay: as above; format: cell-based, mouse; conditions: 50 μM or 100 μM peptide, 24 hours, FIG. 2, FIG. 3A
Method: as §6, §7

fibronectin = assay: as above; format: cell-based, mouse; conditions: 50 μM or 100 μM peptide, 24 hours, FIG. 2, FIG. 3B
Method: as §6, §7

HaCaT cells [4] = assay: Proliferation promoting effect on skin cells (SRB staining, absorbance at 560 nm); format: cell-based, human; conditions: 50 μM or 100 μM peptide, 72 hours, serum-free DMEM, FIG. 1B
Method: as §3, §4

sirtuin-1 (SIRT-1) = assay: Expression of skin barrier factor in HaCaT cells (RT-PCR); format: cell-based, human; conditions: 50 μM or 100 μM peptide, 24 hours, FIG. 4, FIG. 5A
Method: (§8) In this example, the aim was to confirm the effect of the peptides according to an example on skin barrier defense, by evaluating the expression levels of sirtuin-1 (SIRT-1) or aquaporin-3 (AQP3).
(§9) Specifically, HaCaT cells were seeded in a 6-well plate at a density of 3×10^5 cells/well and cultured for 24 hours. The cells were then washed once with serum-free DMEM media, and the culture medium was replaced with serum-free DMEM media. Thereafter, 50 μM or 100 μM of the peptide consisting of the amino acid sequence of SEQ ID NO: 1 was dispensed into the medium, and cultured in a CO2 incubator at 37° C. for 24 hours. The culture was then washed twice with PBS, and RNA was isolated from the culture using easy blue (iNtRON, Korea). Using the RT kit (Enzynomics, Korea), 1 ug of the isolated RNA was reverse transcribed to synthesize the respective cDNA. Polymerase chain reaction was then performed using the cDNAs and primers sirtuin-1and aquaporin-3. Meanwhile, the untreated group was used as the control group, and the group to which EGF was added (EGF) was used as the positive control group, the nucleotide sequences of the primers used in this example are shown in Table 3 below.

aquaporin-3 (AQP3) = assay: as above; format: cell-based, human; conditions: 50 μM or 100 μM peptide, 24 hours, FIG. 4, FIG. 5B
Method: as §8, §9

HaCaT cells [5] = assay: Antioxidant effect on skin cells induced by ultraviolet rays (reactive oxygen species, flow cytometry); format: cell-based, human; conditions: 15m J/cm2 ultraviolet rays, 50 μM or 100 μM peptide, 24 hours, FIG. 7B
Method: as §5
as §2, with “6-well” for “96-well”, “5×10^5” for “1×10^4”, “24” for “72”, “After washing” for “The dried culture was then dissolved in 20 mM Tris buffer solution and”, “centrifuged cells with PBS, FL1 fluorescence values were” for “absorbance at 560 nm was”, “through flow cytometry (FACS, BD,” for “using a microplate reader (Molecular Devices,”

NIH3T3 cells [6] = assay: Inhibitory effect on apoptosis of skin cells induced by ultraviolet rays (survival rate, SRB); format: cell-based, mouse; conditions: 6 J/cm2 ultraviolet rays, 50 μM or 100 μM peptide, 72 hours, FIG. 6A
Method: as §1, §2

Which results are given for “IHGTYKELLDTVTAP (Peptide 1) [SEQ ID NO: 1]”?
cell survival rate of keratinocytes reduced by ultraviolet irradiation (HaCaT cells [1]): restored; proliferation of fibroblasts (NIH3T3 cells [2]): promoted; level of reactive oxygen species in fibroblasts increased by ultraviolet irradiation (NIH3T3 cells [3]): reduced; expression of elastin (elastin): increased; expression of Col1a1 (collagen type 1 (Col1a1)): increased; expression of fibronectin (fibronectin): increased; proliferation of keratinocytes (HaCaT cells [4]): promoted; expression of SIRT-1 (sirtuin-1 (SIRT-1)): increased; expression of AQP3 (aquaporin-3 (AQP3)): increased; level of reactive oxygen species in keratinocytes increased by ultraviolet irradiation (HaCaT cells [5]): reduced; cell survival rate of fibroblasts reduced by ultraviolet irradiation (NIH3T3 cells [6]): restored
